# Marks after values point to notes of the source that are not given here.
# Experiments:
# Format in all cases: in vivo
# [1] = system: Septoria tritici (the causal agent of wheat leaf blotch); experiment: Test B: wheat leaf blotch, preventive spray on wheat seedlings, visual disease rating; conditions: for Test B rating (100 = 100% disease control, 0 = no disease control relative to the controls): wheat leaf blotch, preventive spray on wheat seedlings
# In short: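 Wheat seedlings sprayed to run-off with compound suspension (acetone/water with 250 ppm Trem 014; 200 ppm ≈ 800 g/ha, some at 40 ppm), inoculated next day with Septoria tritici spores. 48 h saturated humidity at 24 °C, then 19 days at 20 °C; visual rating, 100 = full control.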
# [2] = system: Blumeria graminis f. sp. tritici (also known as Erysiphe graminis f. sp. tritici, the causal agent of wheat powdery mildew); experiment: Test D: wheat powdery mildew, preventive spray on wheat seedlings, visual disease rating; conditions: for Test D rating (100 = 100% disease control, 0 = no disease control relative to the controls): wheat powdery mildew, preventive spray on wheat seedlings
# In short: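 Compound suspended in acetone/water (50/50) with 250 ppm Trem 014 and sprayed to run-off on wheat seedlings (200 ppm ≈ 800 g/ha), then inoculated next day with spore dust. Disease rated visually after 8 days at 20 °C as % control relative to untreated plants (0-100).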
# [3] = system: Botrytis cinerea (the causal agent of tomato Botrytis); experiment: Test C: tomato Botrytis, preventive spray on tomato seedlings, visual disease rating; conditions: for Test C rating (100 = 100% disease control, 0 = no disease control relative to the controls): tomato Botrytis, preventive spray on tomato seedlings
# In short: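 Test suspension (acetone/water with 250 ppm Trem 014; 200 ppm equivalent to 800 g/ha) sprayed to run-off on tomato seedlings; B. cinerea spores inoculated next day. After 48 h saturated humidity at 20° C then 3 days at 24° C, disease rated visually as % control relative to untreated controls (0–100).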
# [4] = system: Puccinia recondite f. sp. tritici (the causal agent of wheat leaf rust); experiment: Test A: wheat leaf rust, preventive spray on wheat seedlings, visual disease rating; conditions: for Test A rating (100 = 100% disease control, 0 = no disease control relative to the controls): wheat leaf rust, preventive spray on wheat seedlings
# In short: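 Wheat seedlings were sprayed to run-off with compound suspended in acetone/water containing 250 ppm Trem 014 (200 ppm ≈ 800 g/ha; some at 40 ppm). Puccinia recondite spores were inoculated the next day. Plants were held 24 h saturated at 20° C, then 7 days at 20° C, and disease control was rated visually on a 0–100 scale against controls.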
# [5] = no asterisk (standard test suspension concentration, not 40 ppm)
# [6] = asterisk: 40 ppm test suspension
# [7] = asterisk: 40 ppm test suspension, 100 = 100% disease control, 0 = no control
SMILES,"Test B rating (100 = 100% disease control, 0 = no disease control relative to the controls) [1, 5] [%]","Test D rating (100 = 100% disease control, 0 = no disease control relative to the controls) [2, 5] [%]","Test C rating (100 = 100% disease control, 0 = no disease control relative to the controls) [3, 5] [%]","Test A rating (100 = 100% disease control, 0 = no disease control relative to the controls) [4, 5] [%]","Test B rating (100 = 100% disease control, 0 = no disease control relative to the controls) [1, 6]","Test D rating (100 = 100% disease control, 0 = no disease control relative to the controls) [2, 6]","Test C rating (100 = 100% disease control, 0 = no disease control relative to the controls) [3, 6]","Test A rating (100 = 100% disease control, 0 = no disease control relative to the controls) [4, 6]",other results
Cc1nc(Cl)c(C(O)c2ccc(Cl)cc2)n1-c1ccc(F)cc1Cl (stereo not shown) [compound 59],100,73,99,100,,,,,
Cc1nc(Br)c(C(O)c2c(F)cc(Cl)cc2F)n1-c1ccc(F)cc1Cl (stereo not shown) [compound 362],85,0,0,99,,,,,
"OC(c1ccc(Cl)cc1)c1c(Cl)nc(Cl)n1-c1ccc(Cl)cc1Cl (single isomer, unassigned) [compound 87]",100,48,60,91,,,,,
Cc1nc(Cl)c(C(O)c2ccc(F)cc2Cl)n1-c1c(F)cc(Cl)cc1F (stereo not shown) [compound 117],,,,,100* %,0* %,0* %,99* %,
Cc1nc(Br)c(C(O)c2ccc(Cl)cc2Cl)n1-c1c(F)cc(Cl)cc1F (stereo not shown) [compound 113],,,,,100* %,0* %,0* %,95* %,
OC(c1ccc(F)cc1Cl)c1c(Cl)nc(Cl)n1-c1c(F)cccc1Cl (racemic) [compound 41],100,100,100,100,,,,,
COc1cc(F)c(C(O)c2c(Br)nc(C)n2-c2ccc(F)cc2Br)c(F)c1 (stereo not shown) [compound 323],,,,,100* %,99* %,100* %,100* %,
COc1cc(F)c(-n2c(C)nc(Br)c2C(O)c2ccc(F)cc2Cl)c(F)c1 (stereo not shown) [compound 392],,,,,,,,,"Test B rating (% disease control, wheat leaf blotch) [1, 7]: 100* %; Test D rating (% disease control, wheat powdery mildew) [2, 7]: 0* %; Test C rating (% disease control, tomato Botrytis) [3, 7]: 0* %; Test A rating (% disease control, wheat leaf rust) [4, 7]: 99* %"
Cc1nc(Cl)c(C(O)c2ccc(F)cc2F)n1-c1ccc(F)cc1Cl (stereo not shown) [compound 58],100,72,100,100,,,,,
Cc1nc(Cl)n(-c2c(F)cccc2Cl)c1C(O)c1ccc(F)cc1F (stereo not shown) [compound 332],,,,,100* %,92* %,99* %,100* %,
OC(c1ccc(Cl)cc1)c1c(Cl)nc(Cl)n1-c1c(F)cc(F)cc1Cl (racemic) [compound 39],100,99,99,100,,,,,
Cc1cc(F)ccc1C(O)c1c(Cl)nc(C)n1-c1c(F)cc(F)cc1Br (stereo not shown) [compound 315],,,,,100* %,96* %,96* %,99* %,
Cc1cc(F)ccc1C(O)c1c(C)ncn1-c1c(F)cc(F)cc1Cl (racemic) [compound 15],,0,15,0,0* %,,,,

# — patent publication US20130143929A1, “FUNGICIDAL IMIDAZOLES” (EI DU PONT DE NEMOURS AND COMPANY, priority 2010, published 2013)
